Patent US10975029B2, “Crystalline eravacycline bis-hydrochloride” (Sandoz AG, priority 2016, dated 2021)
Counter-ions that a name gives are not always drawn.

What was measured:
Assay type in all cases: physicochemical
[1] = Gravimetric moisture sorption isotherm, 0% to 95% RH, with pictures to detect visual changes (deliquescence); details: for relative humidity at which the solid liquefies (deliquescence): measured at 25.0±0.1° C., dihydrochloride
Experimental: Moisture sorption isotherms were recorded with an SPSx-1μ moisture sorption analyzer (proUmid, Ulm). The measurement cycle was started at ambient relative humidity (RH) of 25% and first decreased in 5% steps to 5% RH, in one step to 3% RH in a further step to 0% RH. Then RH was increased from 0% to 95% in 5% steps. The time per step was set to a minimum of 2 hours and a maximum of 6 hours. If an equilibrium condition with a constant mass of +0.01% within 1 hour was reached before the maximum time for all examined samples, the sequential humidity step was applied before the maximum time of 6 hours. If no equilibrium was achieved, the consecutive humidity step was applied after the maximum time of 6 hours. The temperature was 25±0.1° C. At the beginning of the GMS experiment, as well as at the end of each RH-step a picture was taken of each sample in order to detect visual changes in the samples. Pictures were taken with a 2046×2046 pixel CMOS image sensor attached to a 35 mm/F 1.4 lens, which was directly connected to the cover plate of moisture sorption analyzer.

[2] = Comparative Example 1: gravimetric moisture sorption/desorption experiment, 0 to 80% RH; details: 25° C.; for hysteresis between the sorption and the desorption curve: 0 to 80% RH; for hysteresis between the sorption and the desorption curve / mass increase during the sorption cycle from 0 to 80% RH: dihydrochloride; for mass increase during the sorption cycle from 0 to 80% RH: sorption cycle 0 to 80% RH, reference weight at 0% RH
Description: Crystalline eravacycline bis-hydrochloride of the present invention and amorphous eravacycline bis-hydrochloride were both subjected to a gravimetric moisture sorption/desorption experiment using an SPSx-1μ moisture sorption analyzer (ProUmid, Ulm). The measurement cycles were started at ambient relative humidity (RH) of 20% and the RH was first decreased in 5% steps to 5% RH, in one step to 3% RH in a further step to 0% RH. Then RH was increased from 0% to 80% and decreased from 80 to 0% RH in 5% steps. Finally, the relative humidity was increased to ambient relative humidity of 20% in 3 steps of approximately 7% steps. The time per step was set to a minimum of 2 hours and a maximum of 6 hours. If an equilibrium condition with a constant mass of 0.01% within 1 hour was reached before the maximum time for all examined samples the sequential humidity step was applied before the maximum time of 6 hours. If no equilibrium was achieved the consecutive humidity step was applied after the maximum time of 6 hours. The temperature was (25±0.1)° C.

[3] = Comparative Example 2: chemical stability under accelerated stress conditions, HPLC at 254 nm; details: dihydrochloride; for Area % (HPLC, 254 nm) after 40° C./75% RH for 19 days / Area % (HPLC, 254 nm) after 40° C./75% RH for 42 days: open stored in glass vials; for Area % (HPLC, 254 nm), initial sample: before stress
Description: [formula] mT=initial mass of eravacycline bis-hydrochloride tested in mg VT=consumption of volumetric solution for titration of eravacycline bis-hydrochloride in mL F=factor of the volumetric solution 36.46=molecular mass of hydrochloride in g/mol 0.1=molarity of the volumetric solution 100=conversion to % High Performance Liquid Chromatography Instrument: Agilent HP 1100 with Chemstation Column: YMC-Pack Pro C18 RS; 150*4.6 mm; 3 microm Solvent: A: 40 mmol amidosulfonic acid in water • B: 40 mmol amidosulfonic acid in water with 75% acetonitrile Gradient: […]
Injection volume: 5 microL Flow: 0.8 mL/min Oven temperature: 40° C. Wavelength: 254 nm
Crystalline eravacycline bis-hydrochloride of the present invention and amorphous eravacycline bis-hydrochloride were subjected to accelerated stress conditions of 40° C. and 75% relative humidity. The samples were open stored in glass vials and analyzed by high performance liquid chromatography at 254 nm using the method as described in the experimental section above.

[4] = listed as crystalline eravacycline 2HCl
[5] = listed as amorphous eravacycline 2HCl

CN(C)[C@@H]1C(O)=C(C(N)=O)C(=O)[C@@]2(O)C(O)=C3C(=O)c4c(O)c(NC(=O)CN5CCCC5)cc(F)c4C[C@H]3C[C@@H]12 [crystalline eravacycline bis-hydrochloride] [(4S,4aS,5aR,12aS)-4-(Dimethylamino)-7-fluoro-3,10,12,12a-tetrahydroxy-1,11-dioxo-9-[2(-pyrrolidin-1-yl)acetamido]-1,4,4a,5,5a,6,11,12a-octahydrotetracene-2-carboxamide dihydrochloride]
water content at a relative humidity of 0% ([1]; 0% RH, gravimetric moisture sorption, 25° C.): about 0 weight %
water content at a relative humidity of 90% ([1]; 90% RH, gravimetric moisture sorption, 25° C.): about 20.1%
relative humidity at which the solid liquefies (deliquescence) [1]: 95%
behaviour when subjected to relative humidity of about 0 to 90% ([1]; relative humidity about 0 to 90% at 25.0±0.1° C.): does not liquefy
hysteresis between the sorption and the desorption curve [2]: no significant hysteresis
water content during the sorption and the desorption cycle at 40% relative humidity ([2]; 40% RH, sorption and desorption cycle, FIG. 6): about 13 weight %
Area % (HPLC, 254 nm) after 40° C./75% RH for 19 days [3, 4]: 77.1 Area %
Area % (HPLC, 254 nm) after 40° C./75% RH for 42 days [3, 4]: 73.8 Area %
Area % (HPLC, 254 nm), initial sample [3, 4]: 95.8 Area %

CN(C)[C@@H]1C(O)=C(C(N)=O)C(=O)[C@@]2(O)C(O)=C3C(=O)c4c(O)c(NC(=O)CN5CCCC5)cc(F)c4C[C@H]3C[C@@H]12 [amorphous eravacycline bis-hydrochloride, (4S,4aS,5aR,12aS)-4-(Dimethylamino)-7-fluoro-3,10,12,12a-tetrahydroxy-1,11-dioxo-9-[2(-pyrrolidin-1-yl)acetamido]-1,4,4a,5,5a,6,11,12a-octahydrotetracene-2-carboxamide dihydrochloride]
relative humidity at which the solid liquefies (deliquescence) [1]: 85%
hysteresis between the sorption and the desorption curve [2]: significant hysteresis
water content in the desorption curve at 40% relative humidity ([2]; 40% RH, desorption curve, FIG. 7): 14.3%
water content in the sorption curve at 40% relative humidity ([2]; 40% RH, sorption curve, FIG. 7): about 8.9 weight %
mass increase during the sorption cycle from 0 to 80% RH [2]: about 26.1 weight %
mass increase during the sorption cycle from 0 to 80% RH ([2]; listed as Amorphous eravacycline bis-hydrochloride): about 26.1 weight %
Area % (HPLC, 254 nm) after 40° C./75% RH for 19 days [3, 5]: 31.9 Area %
Area % (HPLC, 254 nm) after 40° C./75% RH for 42 days [3, 5]: 30.3 Area %
Area % (HPLC, 254 nm), initial sample [3, 5]: 97.2 Area %
